Experimental data from a melting point compilation (Tetko et al.; mined from patent text by program, amines drawn as free bases though some values may be those of a salt).

| Compound | melting point [°C] |
| --- | --- |
| NS(=O)(=O)c1ccc(C2=C(c3ccc(F)cc3)CC3(CC3)C2)cc1 | 131 to 133 |
| CCOC(=O)c1cccc(Cn2cnc3ccccc32)c1 | 68 to 70 |
| Cc1c(F)ccc([N+](=O)[O-])c1Cl | 37 to 39 |
| O=C(CCN1CCN(c2ccnc3ccccc23)CC1)c1csc2ccccc12 | 134 to 136 |
| CN1CCCC(n2nc(-c3c(-c4ccccc4)nn4ccccc34)ccc2=O)C1 (stereo not given) | 126 to 127 |
| CCSc1cc(C)nc(SCC)c1NC(=O)CSc1nc2cccc(S(C)(=O)=O)c2o1 | 159 to 162 |
| C=C1[C@@H](NC(=O)C(F)(F)F)CC(O)O[C@H]1C (stereo not given in full) | 168 to 170 |
| NC(=O)c1cc(Cl)c([N+](=O)[O-])cc1[N+](=O)[O-] | 201 to 203 |
| O=C(O)Cn1c(-c2ccc(Cl)c(Cl)c2)nc2cccnc21 | 248 to 249 |
| Clc1nnc(Cc2ccc(OCc3ccccc3)cc2)c2ccccc12 | 150 to 152 |
| CSc1ncccc1NC(=O)CCCCCSc1nc2ccccc2[nH]1 | 121 to 123 |
| CCOCC(=NO)C(C)(C)NCCCNC(C)(C)C(Cn1ccnc1[N+](=O)[O-])=NO | 122 to 123 |
| Clc1cccc2c(C3CCN(CCCOc4cccc5[nH]ccc45)CC3)c[nH]c12 | 178 to 182 |
| Cc1ncc(C#N)c(Nc2ccc3[nH]ccc3c2C)c1-c1cc2cc(C=O)ccc2o1 | 168 to 169 |
| Cc1ccc2c(=O)cc[nH]c2c1[N+](=O)[O-] | > 250 |
| CON(c1ccc([N+](=O)[O-])cc1[N+](=O)[O-])S(=O)(=O)c1cccc(C)c1 | 148 to 150 |
| NS(=O)(=O)c1sc2ccccc2c1CCO | 162 to 164 |
| COC(=O)N(C)N=C(c1ccc(Cl)cc1)C(C)(C)C | 58 to 60 |
| Cc1coc2ncnc(NCCc3ccc(Cl)cc3)c12 | 140 |
| COC(=O)CCCNC(=O)N1CCN(c2cc3c(cc2F)c(=O)c(C(=O)O)cn3C2CC2)CC1 | 198 to 200 |
| CCN1CCN(C(C(=O)O)c2ccc(Nc3nc(-c4cccc(NC(=O)c5cc6c(s5)CCCCC6)c4C)cn(C)c3=O)cc2)CC1 (stereo not given) | 168 to 170 |
| Cc1cc(C(Cl)=C(Cl)Cl)cc(C(Cl)=C(Cl)Cl)c1 | 41.4 to 44.6 |
| c1cc(C2CC(c3ccncn3)CC(c3ccncn3)C2)ncn1 (stereo not given) | 126 to 128 |
| CCCCn1nc(-c2ccccc2)c(CC(=O)O)c1-c1ccccc1 | 97 to 98 |
| CCCCCCCC(=N)NC(=O)Nc1ccc(Cl)cc1 | 156 to 165 |

| Compound | melting point [°C] |
| --- | --- |
| O=C1CCC(N2Cc3c(OCc4ccc(CN5CCC(c6ccccc6)CC5)cc4)cccc3C2=O)C(=O)N1 (stereo not given) | 220 to 222 |
| CS(=O)(=O)Nc1ncc(SCc2ccccc2)s1 | 159 to 162 |
| Cc1nc(N)sc1S(=O)(=O)N1CCN(C)CC1 | 188 |
| CC(C)(C)C(=O)OCN1C(=O)NC2(C1=O)C(=O)N(Cc1ccc(Cl)c(Cl)c1)c1ccccc12 (stereo not given) | 209 to 211 |
| O=C(O)c1cc(Cl)ccc1-n1cccc1 | 178 |
| Cc1cc(Nc2cc(-c3c(C)cccc3C)nc(Sc3ccc4ccccc4c3)n2)[nH]n1 | 148 to 152 |
| COc1cc(C(=O)c2ccnc3ccccc23)ccc1O | 190 to 192 |
| CCc1noc(-c2ncn(-c3cccc(O)c3)c2COC)n1 | 98 to 99 |
| CC1COc2cc(-c3ccco3)ccc2C1=NO (stereo not given) | 175 to 177 |
| CS(=O)(=O)c1ccc(C(=O)Nc2ccc(-n3nc(C(F)(F)F)cc3C(F)(F)F)cc2)c(Cl)c1 | 219 to 220 |
| CC(C)Nc1ccc(-c2ncc(C(F)(F)F)cc2Cl)cc1[N+](=O)[O-] | 107 to 109 |
| CS(=O)(=O)c1cc(C=O)cc(O)c1O | 169 to 171 |
| OC[C@@H](O)[C@@H](CO)OCc1ccccc1Cl | 74 to 76 |
| COC(=O)c1cc(Cl)c2cccc(OC)c2n1 | 139 to 141 |
| COc1ccc(C[C@@H](NC(=O)c2ccc(F)c3ccccc23)[C@@H](O)c2ccc(F)cc2)cc1 (racemic) | 210 to 211 |
| CCCN(Cc1ccc(-c2ccccc2-c2nnn[nH]2)cc1)C1(C(=O)O)C=NSN1 (stereo not given) | 97 to 98 |
| Cn1ncc(C=O)c1-c1cccnc1 | 118 to 119 |
| CC(C)Oc1ccc(Oc2ccc3c(c2)c(C(=O)O)c(CC(=O)O)n3-c2cccc(Cl)c2)cc1 | 188 to 190 |
| CC(=O)NCCCCCC(=O)NC[C@@H]1CN2C(=O)C[C@H]2O1 (racemic) | 117 to 118 |
| COC(=O)[C@@]12CN(Cc3ccccc3)C[C@@H]1[C@@](O)(c1ccc(C)cc1)CC[C@H]2c1ccccc1 (racemic) | 164 |
| N#CCC(=O)N[C@H]1CC[C@H](CCN2CCN(c3nccc4c3CCO4)CC2)CC1 | 188 |
| CCOC(=O)Cc1ccc(NC(=O)N2CCn3c(c(C(N)=O)c(C#N)c3C3CC3)C2)cc1 | 263 to 264 |
| O=C(C1CCN(c2ccncc2)CC1)N1CCC(Oc2ccc(Br)cc2)CC1 | 127 to 130 |
| CC(=O)Cc1cccc2c1C(=O)c1ccccc1C2=O | 198 to 200 |
| CCc1[nH]c(=O)[nH]c1C(=O)c1cccnc1 | 219 to 221 |

| Compound | melting point [°C] |
| --- | --- |
| CCCCn1nc(-c2cc(C(C)(C)C)c(O)c(C(C)(C)C)c2)c2cccnc21 | 94 to 96 |
| Cc1cccc(NC(=O)NC(CC(N)=O)C(=O)N(CC(=O)OC(C)(C)C)c2ccccc2)c1 (racemic) | 192 |
| O=c1[nH]ncc2[nH]c(-c3ccc(OC(F)F)c(OC4CC4)c3)c(CO)c12 | 190 to 191 |
| COc1ccc(N(C(=O)CN2C(=O)C(COCc3ccccc3)C(=O)N(c3ccccc3)c3ccccc32)C(C)C)cc1 (stereo not given) | 203 to 204 |
| N#Cc1cc(C(=O)CBr)ccc1N | 162 to 165 |
| CC(C)(C)OC(=O)N(CC(=O)OCN1C(=O)CCC(N2C(=O)c3ccccc3C2=O)C1=O)C(=O)CN (stereo not given) | 178 to 181 |
| O=C(CN1CCC(Cc2ccc(F)cc2)CC1)Nc1ccc2c(c1)OCC(=O)N2 | 209 to 211 |
| COc1ccc(C2CNC(=O)NC2)cc1OC(F)F | 215 to 216 |
| C#CCN(C(=O)OC(C)(C)C)c1cn(-c2cncc(F)c2)nc1C | 81 to 82 |
| COc1ccc(C2=NN(C3CCN(S(=O)(=O)c4ccccc4OC(F)(F)F)CC3)C(=O)CC2)cc1OC | 118 to 119 |
| Cc1n[nH]c(-c2ccc(F)cc2)c1-c1ccc2c(c1)NC(=O)CO2 | 295 to 298 |
| N#Cc1cc(Cn2cncn2)cc(-c2ccccc2)c1 | 109 to 110 |
| CC1C=C2C(=CC=CC23NC(=O)NC3=O)O1 (stereo not given) | 234 to 236 |
| BrC(Br)c1nc(C(Br)Br)nc(C(Br)Br)n1 | 130 to 131 |
| COc1ccc(-c2ncccc2C=C(Cc2cc3c(cc2OC)OCO3)C(=O)O)c(OCc2ccccc2C(=O)O)c1 | 135 to 140 |
| C1=COc2ccccc2O1 | 59 to 61 |
| COC(=O)Nc1ccc(CCc2cc(OC)ccc2OC)cc1C(=O)OC | 80 to 82 |
| COc1ccc2[nH]c(S(=O)Cc3nccc(N4CCOCC4)c3F)nc2c1 (stereo not given) | 142 to 146 |
| COC(=O)CC(CSc1ccc2ccccc2c1)C(=O)O (stereo not given) | 97 to 99 |
| Cc1ccc(C(=O)c2cnn3c(-c4cccc(NC(=O)C5CC5)c4)ccnc23)s1 | 243 to 245 |
| COc1ccc2c(c1)nc(C)n2-c1ccccc1 | 88 to 90 |
| COc1cc2c(c([N+](=O)[O-])c1)NCCC2=O | 161 to 162 |
| CCCCCc1ccc(C(=O)Nc2ccc3cc(CN4CCCC4)cnc3c2C)cc1 | 121 |
| CCNC(=O)/C=C(C)/C=C/C(F)=C(C)/C=C/c1c(C)sc(C)c1C | 167 to 171 |
| COc1nc(NC(=O)NS(=O)(=O)c2cccc3c2OS(=O)(=O)C(C)=C3)c(Cl)c(OC)n1 | 236 to 237 |

| Compound | melting point [°C] |
| --- | --- |
| COc1ccc(OC)c([Si](C)(C)COc2cc(C(C)(C)C)c(O)c(C(C)(C)C)c2)c1 | 103 |
| CCn1cc(C(=O)O)c(=O)cc1-c1ccc(N2CCCC2)cc1 | 276 to 278 |
| CCCCCCC(C(=O)O)N1NCc2cc(-c3ccccc3-c3nn[nH]n3)ccc21 (stereo not given) | 105 to 110 |
| Cc1nc(NC(=O)Nc2ccc(N3CCN(C(=O)Nc4ccc(OCCO)cc4C(F)(F)F)CC3)cc2)sc1C | 166 to 167 |
| O=C(O)COc1cccc2c1CCc1sc(NCCC(c3ccccc3)c3ccccc3)nc1-2 | 240 to 243 |
| O=C1NC(=O)C(S(=O)(=O)c2ccccc2)S1 (stereo not given) | 130 to 133 |
| CN(C(=O)C(F)(F)F)N1CCc2ccccc2C(Oc2ccc(C(F)(F)F)cc2)C1 (stereo not given) | 210 to 212 |
| Cn1cc(C(=O)NCc2ccc(Cl)cc2)c(=O)c2cc(CCCO)cc(OCCO)c21 | 175 to 179 |
| CN1CCN(C(=O)COc2cccc(CCNS(=O)(=O)c3ccc(Cl)cc3)c2)CC1 | 139 to 141 |
| Cc1cccc2c(=O)[nH]c(N3CCN(CCCCN4CCN(C)CC4)CC3)cc12 | 202 to 203 |
| CNC(=O)Nc1ccc(Cl)cc1Cl | 214 |
| O=C(CCCCC1CCSS1)NO (stereo not given) | 63 to 64 |
| O=C(CCl)Oc1ccccc1O | 32 to 35 |
| CCCCCc1nc2c(N)nc3c(c2n1CCCCNS(C)(=O)=O)CCCC3 | 167 to 168 |
| COc1cc(C2(C)C(=O)Nc3ccccc3C2=O)ccc1O (stereo not given) | 168 to 169 |
| C=CCc1cc(Nc2ccn(-c3ccccc3)n2)cc(CC=C)c1O | 87 to 88 |
| Fc1ccc2c(C3CCNCC3)n[nH]c2c1 | 214 to 216 |
| Cc1cc2c(cc1C(=O)Cc1ccccc1)CCC2 | 126 to 127 |
| COC(=O)Cc1cc(Br)ccc1OCc1ccc(OCc2nc(-c3ccccc3)oc2C)cc1 | 100 to 101 |
| CCCCc1ccc2nc(C(=O)OCC)cc(Cl)c2c1 | 54.5 to 56 |
| O=c1c2cc(F)c(Cl)nc2n(Cc2ccccc2)c(=O)n1OCc1ccccc1 | 209 to 210 |
| CCOc1ccccc1OCCNC(C)Cc1ccc(OC)c(S(N)(=O)=O)c1 (stereo not given) | 118 to 124 |
| CSc1nc(N)nc2c1ncn2COCCO | 188 to 191 |
| CC(=O)Nc1ccc(O)c(C(=O)C=Cc2ccccc2)c1 | 162 to 165 |
| CCOC(=O)c1cn(-c2cc(OC)c(F)cc2F)c2c(C)c(N)c(F)cc2c1=O | 232 to 235 |
